# Where two headings read alike, the source gives them in different places.
# Tested on: 407 cancer cell lines
# Assay: Cell viability of cancer cell lines (IC50), CellTiter-Glo Viability Assay, 96 h
# Assay type: cell-based
# Settings: for IC50: read-out: Absolute IC50
# Method: Viability was determined by using the 50% inhibitory concentration (IC50) as determined with the CellTiter-Glo® Viability Assay (Promega).
# Experiments were initiated by first thawing and equilibrating the CellTiter-Glo® Buffer to room temperature. The lyophilized CellTiter-Glo® Substrate was also equilibrated to room temperature. The lyophilized substrate was reconstituted with the CellTiter-Glo® buffer to form the CellTiter-Glo® Reagent.
# Cells were harvested during the logarithmic growth period, counted, and the cell concentration adjusted to 4.44×10^4 cells/mL using culture medium.
# Cells were allowed to grow overnight and the following day, the TO reading was obtained by adding 10 μL culture medium to each well of Plate A. The plate was allowed to equilibrate at room temperature for thirty minutes, after which 50 μL CellTiter-Glo® reagent was added to each well. The contents were mixed for 5 min on an orbital shaker to induce cell lysis. Plates were incubated for 20 minutes to stabilize the luminescent signal and the TO luminescence recorded.
# Test plate B was incubated for 96 h in the humidified incubator at 37° C. with 5% CO2.
# Following the incubation, the plate was equilibrated at room temperature for thirty minutes. CellTiter-Glo® (50 μL) was added to each well of the plate and contents mixed for five minutes on an orbital shaker to induce cell lysis. The luminescent signal was allowed to stabilize at room temperature for 20 minutes and the luminescence recorded.
# IC50 (EC50) was calculated using a dose-response curve, fitted using a nonlinear regression model with a sigmoidal dose response. Survival rate was calculated using the formula:
# The Surviving rate (%)=(LumTest article−LumMedium control)/(LumNon-treated−LumMedium control)×100%.
# Absolute IC50 (EC50) was calculated according to the dose-response curve generated by the statistical software (GraphPad Prism 5.0).
smiles,measurement,setting,value
"Cc1nn(-c2nc(-c3ccc(C(F)(F)F)cc3)c(SC(C)C)s2)c(C(=O)O)c1-c1cccc(F)c1 [Compound A197, 4-(3-fluorophenyl)-1-(5-(isopropylthio)-4-(4-(trifluoromethyl)phenyl)thiazol-2-yl)-3-methyl-1H-pyrazole-5-carboxylic acid]",IC50,"Homo sapiens, TT, 96 h, TT cells, 96 h",2070 nM
same,IC50,"Homo sapiens, Toledo, 96 h, Toledo cells, 96 h",1450 nM
same,IC50,"Homo sapiens, U2OS, 96 h, U-2 OS cells, 96 h",16800 nM
same,IC50,"Homo sapiens, U2932, 96 h, U-2932 cells, 96 h",460 nM
same,IC50,"Homo sapiens, U-87 MG, 96 h, U-87 MG cells, 96 h",24900 nM
same,IC50,"Homo sapiens, U-251, 96 h, U251 cells, 96 h",280 nM
same,IC50,"Homo sapiens, U-937, 96 h, U-937 cells, 96 h",410 nM
same,IC50,"Homo sapiens, UACC-812, 96 h, UACC-812 cells, 96 h",> 30000 nM
same,IC50,"Homo sapiens, UMUC3, 96 h, UM-UC-3 cells, 96 h",930 nM
same,IC50,"Homo sapiens, UO-31, 96 h, UO.31 cells, 96 h",> 30000 nM
same,IC50,"Homo sapiens, WM 266-4, 96 h, WM-266-4 cells, 96 h",> 30000 nM
same,IC50,"Homo sapiens, WSU-NHL, 96 h, WSU-NHL cells, 96 h",480 nM
same,IC50,"Homo sapiens, WSUDLCL2, 96 h, WSU-DLCL2 cells, 96 h",680 nM
same,IC50,"Homo sapiens, Y79, 96 h, Y-79 cells, 96 h",> 30000 nM
same,IC50,"Homo sapiens, Z-138, Z-138",1500 nM
same,IC50,"Homo sapiens, ZR-75-1, ZR-75-1",7810 nM
same,IC50,"Homo sapiens, ZR-75-30, 96 h",> 30000 nM
same,% inhibition at top conc.,"HuCCT1, 96 h",51.19%
same,% inhibition at top conc.,"Ishikawa, 96 h",82.51%
same,IC50,JAR,670 nM
same,% inhibition at top conc.,"JEG-3 cells, 96 h",52.54%
same,IC50,"JHH1, 96 h, JHH-1 cells, 96 h",> 30000 nM
same,IC50,"JHH7, 96 h, JHH-7 cells, 96 h",660 nM
same,IC50,"JHH-4, 96 h, JHH-4 cells, 96 h",1500 nM
same,IC50,"JVM13, JVM-13",390 nM
same,% inhibition at top conc.,"KATO III, 96 h",45.89%
same,IC50,"KPL4, KPL-4",250 nM
same,IC50,"L-82, L-82",3780 nM
same,% inhibition at top conc.,"LNCaP clone FGC, 96 h",76.07%
same,IC50,"Li-7, Li-7",850 nM
same,% inhibition at top conc.,"MDA-MB-436, 96 h",54.72%
same,% inhibition at top conc.,"MKN1 cells, 96 h",53.97%
same,% inhibition at top conc.,"MKN45, 96 h",14.51%
same,% inhibition at top conc.,"MKN74 cells, 96 h",52.90%
same,IC50,MM.1R,1190 nM
same,IC50,"MOLM16, 96 h, MOLM-16 cells, 96 h",350 nM
same,IC50,"MS751, 96 h, MS751 cells, 96 h",> 30000 nM
same,IC50,NAMALWA CSN/70,490 nM
same,% inhibition at top conc.,"NCI-H69 cells, 96 h",21.37%
same,% inhibition at top conc.,"NCI-H82, 96 h",92.52%
same,% inhibition at top conc.,"NCI-H146 cells, 96 h",37.67%
same,% inhibition at top conc.,"NCI-H209 cells, 96 h",45.11%
same,% inhibition at top conc.,"NCI-H292 cells, 96 h",54.61%
same,IC50,"NCI-H322, 96 h, NCI-H322 cells, 96 h",290 nM
same,% inhibition at top conc.,"NCI-H358 cells, 96 h",68.44%
same,% inhibition at top conc.,"NCI-H446 cells, 96 h",51.21%
same,% inhibition at top conc.,"NCI-H460 cells, 96 h",49.03%
same,% inhibition at top conc.,"NCI-H520 cells, 96 h",76.45%
same,% inhibition at top conc.,"NCI-H526 cells, 96 h",44.57%
same,% inhibition at top conc.,"NCI-H727 cells, 96 h",35.60%
same,IC50,"NCI-H820, 96 h, NCI-H820 cells, 96 h",350 nM
same,% inhibition at top conc.,"NCI-H820 cells, 96 h",78.69%
same,% inhibition at top conc.,"NCI-H1048 cells, 96 h",66.49%
same,% inhibition at top conc.,"NCI-H1155 cells, 96 h",79.14%
same,% inhibition at top conc.,"NCI-H1299 cells, 96 h",83.01%
same,IC50,"NCI-H1435, NCI-H1435",390 nM
same,IC50,"NCI-H1568, 96 h, NCI-H1568 cells, 96 h",270 nM
same,% inhibition at top conc.,"NCI-H1648 cells, 96 h",57.33%
same,% inhibition at top conc.,"NCI-H1651 cells, 96 h",67.37%
same,IC50,"NCI-H1688, NCI-H1688",> 30000 nM
same,% inhibition at top conc.,"NCI-H1703 cells, 96 h",73.10%
same,IC50,"NCI-H1781, 96 h, NCI-H1781 cells, 96 h",> 30000 nM
same,% inhibition at top conc.,"NCI-H1792 cells, 96 h",68.85%
same,IC50,"NCI-H1915, 96 h, NCI-H1915 cells, 96 h",> 30000 nM
same,% inhibition at top conc.,"NCI-H1975 cells, 96 h",25.02%
same,% inhibition at top conc.,"NCI-H1993 cells, 96 h",78.76%
same,% inhibition at top conc.,"NCI-H2087 cells, 96 h",50.14%
same,% inhibition at top conc.,"NCI-H2170 cells, 96 h",75.97%
same,% inhibition at top conc.,"NCI-H2228 cells, 96 h",54.12%
same,% inhibition at top conc.,"NCI-N87, 96 h",54.19%
same,IC50,NK-92MI,6580 nM
same,IC50,NOZ,710 nM
same,% inhibition at top conc.,"NUGC-3 cells, 96 h",63.39%
same,% inhibition at top conc.,"NUGC-4 cells, 96 h",62.77%
same,IC50,"OCUG-1, OCUG-1",1250 nM
same,IC50,"OCUM1, 96 h, OCUM-1 cells, 96 h",> 30000 nM
same,% inhibition at top conc.,"OCUM-1 cells, 96 h",19.71%
same,% inhibition at top conc.,"OCUM-2D cells, 96 h",65.33%
same,% inhibition at top conc.,"OCUM-2M cells, 96 h",66.13%
same,% inhibition at top conc.,"OE19, 96 h",53.21%
same,IC50,"OSC19, 96 h, OSC-19 cells, 96 h",> 30000 nM
same,% inhibition at top conc.,"OVCAR-3 cells, 96 h",46.65%
same,% inhibition at top conc.,"OVCAR-8 cells, 96 h",75.04%
same,IC50,OZ,> 30000 nM
same,% inhibition at top conc.,"PC-9 cells, 96 h",52.79%
same,IC50,PEER,1870 nM
same,IC50,"PL45, PL45",1190 nM
same,IC50,RD-ES,> 30000 nM
same,% inhibition at top conc.,"RPMI-2650 cells, 96 h",52.41%
same,% inhibition at top conc.,"RT4 cells, 96 h",49.68%
same,% inhibition at top conc.,"SCC-4, 96 h",26.22%
same,% inhibition at top conc.,"SCH cells, 96 h",53.08%
same,IC50,"SF763, SF-763",760 nM
same,% inhibition at top conc.,"SK-MEL-5, 96 h",25.67%
same,% inhibition at top conc.,"SK-MEL-28, 96 h",13.20%
same,% inhibition at top conc.,"SK-OV-3 cells, 96 h",34.62%
same,IC50,"SNU620, 96 h, SNU-620 cells, 96 h",> 30000 nM
same,IC50,"SNU668, 96 h, SNU-668 cells, 96 h",> 30000 nM
same,% inhibition at top conc.,"SNU-1 cells, 96 h",74.67%
same,% inhibition at top conc.,"SNU-5, 96 h",54.08%
same,IC50,SNU-81,> 30000 nM
same,IC50,"SNU-216, 96 h, SNU-216 cells, 96 h",> 30000 nM
same,IC50,SNU-368,> 30000 nM
same,IC50,"SNU-484, 96 h, SNU-484 cells, 96 h",> 30000 nM
same,% inhibition at top conc.,"SNU-484 cells, 96 h",45.94%
same,IC50,"SNU-601, 96 h, SNU-601 cells, 96 h",490 nM
same,% inhibition at top conc.,"SNU-601 cells, 96 h",67.28%
same,% inhibition at top conc.,"SNU-638 cells, 96 h",56.77%
same,% inhibition at top conc.,"SNU-719 cells, 96 h",32.64%
same,IC50,"SNU-739, SNU-739",20900 nM
same,% inhibition at top conc.,"SNU-761 cells, 96 h",59.03%
same,% inhibition at top conc.,"SNU-2535 cells, 96 h",46.87%
same,IC50,SNU-C2A,580 nM
same,IC50,"SW579, 96 h, SW579 cells, 96 h",> 30000 nM
same,% inhibition at top conc.,"SW684 cells, 96 h",4.22%
same,% inhibition at top conc.,"SW948 cells, 96 h",46.17%
same,IC50,"SW1271, SW1271",> 30000 nM
same,IC50,U266B1,> 30000 nM
same,% inhibition at top conc.,"UACC-812 cells, 96 h",20.05%
same,% inhibition at top conc.,"YCC-1 cells, 96 h",29.02%
same,% inhibition at top conc.,"YCC-6 cells, 96 h",56.86%
same,% inhibition at top conc.,"YCC-10, 96 h",38.86%
same,IC50,"YCC-11, 96 h, YCC-11 cells, 96 h",> 30000 nM
same,% inhibition at top conc.,"YCC-11 cells, 96 h",48.65%
same,% inhibition at top conc.,"ZR-75-30, 96 h",10.01%
